The results in this text go back to paper PMC3961306, “Comparison of the Cancer Gene Targeting and Biochemical Selectivities of All Targeted Kinase Inhibitors Approved for Clinical Use” (PLoS ONE, 2014).

Assay in all cases: Kinase profiling in a biochemical assay panel (mobility shift assays and ELISA), %-inhibition at 1 μM; selectivity entropy
On the technique in general: An ELISA detects its analyte on a solid surface through an enzyme-linked reagent.

Experiment [1] addresses panel of more than 300 wild-type and mutant kinases (313 kinase panel) (Homo sapiens, UniProt O75116). The following applies: kinase ROCK2; 1 μM.
In experiment [2] the target is T1, panel of more than 300 wild-type and mutant kinases (313 kinase panel) (Homo sapiens, UniProt O94806).
T1 sequence (O94806 1-890): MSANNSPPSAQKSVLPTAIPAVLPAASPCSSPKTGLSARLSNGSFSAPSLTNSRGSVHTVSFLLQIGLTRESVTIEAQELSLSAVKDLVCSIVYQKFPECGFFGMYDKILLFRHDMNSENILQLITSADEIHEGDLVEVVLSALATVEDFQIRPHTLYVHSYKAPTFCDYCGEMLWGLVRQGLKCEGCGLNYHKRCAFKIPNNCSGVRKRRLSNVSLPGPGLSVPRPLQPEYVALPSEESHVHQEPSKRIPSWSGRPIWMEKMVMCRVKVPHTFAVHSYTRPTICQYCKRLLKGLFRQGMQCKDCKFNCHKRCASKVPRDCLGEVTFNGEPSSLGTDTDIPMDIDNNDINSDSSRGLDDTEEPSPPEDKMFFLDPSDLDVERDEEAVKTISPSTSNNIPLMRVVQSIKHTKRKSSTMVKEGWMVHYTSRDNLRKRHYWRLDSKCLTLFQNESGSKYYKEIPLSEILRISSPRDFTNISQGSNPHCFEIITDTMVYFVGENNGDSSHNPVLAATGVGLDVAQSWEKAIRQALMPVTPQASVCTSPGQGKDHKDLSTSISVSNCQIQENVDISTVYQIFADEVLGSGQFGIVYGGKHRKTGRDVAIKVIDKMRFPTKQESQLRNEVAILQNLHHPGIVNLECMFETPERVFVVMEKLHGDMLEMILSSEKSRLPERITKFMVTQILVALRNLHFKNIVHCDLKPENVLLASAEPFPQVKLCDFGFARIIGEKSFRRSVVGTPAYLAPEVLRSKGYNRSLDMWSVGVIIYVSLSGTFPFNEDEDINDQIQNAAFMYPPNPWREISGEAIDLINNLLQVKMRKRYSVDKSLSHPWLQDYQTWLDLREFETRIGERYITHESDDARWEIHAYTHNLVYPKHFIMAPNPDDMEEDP
The conditions noted are these: kinase PKD3; 1 μM.

For experiment [3], the target named is panel of more than 300 wild-type and mutant kinases (313 kinase panel) (Homo sapiens, UniProt P05129). The following applies: kinase PKCγ; 1 μM.
In experiment [4] the target is panel of more than 300 wild-type and mutant kinases (313 kinase panel) (Homo sapiens, UniProt P08922).
In experiment [5] the target is panel of more than 300 wild-type and mutant kinases (313 kinase panel) (Homo sapiens, UniProt P17612).
The target in experiment [6] is T2, panel of more than 300 wild-type and mutant kinases (313 kinase panel) (Homo sapiens, UniProt P54762).
T2 sequence (P54762 18-984): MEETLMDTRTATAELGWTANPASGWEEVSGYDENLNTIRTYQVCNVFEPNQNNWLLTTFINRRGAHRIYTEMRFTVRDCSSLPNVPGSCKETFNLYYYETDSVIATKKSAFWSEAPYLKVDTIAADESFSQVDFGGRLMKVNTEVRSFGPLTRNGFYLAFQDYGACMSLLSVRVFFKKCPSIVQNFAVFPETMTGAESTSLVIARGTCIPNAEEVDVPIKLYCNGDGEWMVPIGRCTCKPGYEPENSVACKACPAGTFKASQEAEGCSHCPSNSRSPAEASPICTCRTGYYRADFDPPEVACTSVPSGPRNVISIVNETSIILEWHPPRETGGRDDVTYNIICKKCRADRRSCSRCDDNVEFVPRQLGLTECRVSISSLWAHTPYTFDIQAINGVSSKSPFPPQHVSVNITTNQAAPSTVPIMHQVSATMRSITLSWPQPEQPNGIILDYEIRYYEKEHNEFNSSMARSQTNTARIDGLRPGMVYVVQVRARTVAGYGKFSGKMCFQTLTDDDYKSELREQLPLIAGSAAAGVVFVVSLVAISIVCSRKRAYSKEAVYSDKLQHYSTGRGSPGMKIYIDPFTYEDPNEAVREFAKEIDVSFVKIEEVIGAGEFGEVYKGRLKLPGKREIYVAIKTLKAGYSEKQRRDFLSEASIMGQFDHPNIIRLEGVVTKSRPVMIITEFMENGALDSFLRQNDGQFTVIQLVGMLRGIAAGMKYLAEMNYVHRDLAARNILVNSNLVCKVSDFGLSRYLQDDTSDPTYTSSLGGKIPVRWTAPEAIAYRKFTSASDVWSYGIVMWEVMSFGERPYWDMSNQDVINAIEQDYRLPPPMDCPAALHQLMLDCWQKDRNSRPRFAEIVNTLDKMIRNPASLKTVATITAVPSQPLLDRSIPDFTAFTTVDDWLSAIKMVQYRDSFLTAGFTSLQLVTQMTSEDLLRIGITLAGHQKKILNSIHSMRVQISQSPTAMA

The target in experiment [7] is panel of more than 300 wild-type and mutant kinases (313 kinase panel) (Homo sapiens, UniProt Q05397). The following applies: kinase FAK; compound at 1 μM.
For experiment [8], the target named is panel of more than 300 wild-type and mutant kinases (313 kinase panel) (Homo sapiens, UniProt Q16654). The following applies: kinase PDHK4; 1 μM.
Experiment [9] concerns the target panel of more than 300 wild-type and mutant kinases (313 kinase panel) (Homo sapiens, UniProt Q9Y243). The following applies: kinase AKT3; 1 μM compound.

Sequence of panel of more than 300 wild-type and mutant kinases (313 kinase panel) (Homo sapiens, UniProt Q9Y243) (Q9Y243 whole entry, change not shown): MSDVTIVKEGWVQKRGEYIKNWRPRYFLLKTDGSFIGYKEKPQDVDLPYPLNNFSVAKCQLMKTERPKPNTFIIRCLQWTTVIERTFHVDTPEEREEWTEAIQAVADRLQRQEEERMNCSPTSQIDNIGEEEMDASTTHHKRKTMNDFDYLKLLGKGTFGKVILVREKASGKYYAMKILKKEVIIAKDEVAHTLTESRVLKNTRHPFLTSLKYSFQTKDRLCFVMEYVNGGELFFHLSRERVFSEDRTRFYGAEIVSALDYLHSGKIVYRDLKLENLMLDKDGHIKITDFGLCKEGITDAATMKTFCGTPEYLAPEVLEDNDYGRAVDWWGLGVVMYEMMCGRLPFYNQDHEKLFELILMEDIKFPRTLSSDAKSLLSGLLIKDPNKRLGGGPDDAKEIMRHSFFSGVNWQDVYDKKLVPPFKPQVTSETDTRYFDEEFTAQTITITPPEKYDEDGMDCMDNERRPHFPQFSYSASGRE

`CO[C@H]1C[C@@H]2CC[C@@H](C)[C@@](O)(O2)C(=O)C(=O)N2CCCC[C@H]2C(=O)O[C@H]([C@H](C)C[C@@H]2CC[C@@H](OCCO)[C@H](OC)C2)CC(=O)[C@H](C)/C=C(\C)[C@@H](O)[C@@H](OC)C(=O)[C@H](C)C[C@H](C)/C=C/C=C/C=C/1C` [everolimus]: in [1], the “%-inhibition of ROCK2” value is given as -5.49%. Further, the “%-inhibition of PKD3” value in experiment [2] is reported as -7.55%. Further, in [3], the “%-inhibition of PKCγ” value was -6.56%. Moreover, the “%-inhibition of ROS” value in experiment [4] (kinase ROS, 1 μM) is reported as -0.608%. For the same compound, the “%-inhibition of PKACα” value in experiment [5] (kinase PKACα, 1 μM) is given as -6%. In [6] (kinase EPHB1, compound at 1 μM), the “%-inhibition of EPHB1” value was -0.233%. Also, the “%-inhibition of FAK” value in experiment [7] is recorded as -4%. Besides, the “%-inhibition of PDHK4” value in [8] is on record as 2%. Besides, in experiment [9], the “%-inhibition, AKT3” value was -3.39%.

As for `CC(=O)Nc1cccc(-n2c(=O)n(C3CC3)c(=O)c3c(Nc4ccc(I)cc4F)n(C)c(=O)c(C)c32)c1` [trametinib], in [1], the “%-inhibition of ROCK2” value is listed as 3%. Also, the “%-inhibition of PKD3” value in experiment [2] was determined as 2.48%. Moreover, the “%-inhibition of PKCγ” value in [3] amounted to 0.381%. Further, the “%-inhibition of ROS” value in [4] (kinase ROS, 1 μM) is on record as -0.611%. Also, the “%-inhibition of PKACα” value in experiment [5] (kinase PKACα, 1 μM) worked out at 8.52%. Besides, the “%-inhibition of EPHB1” value in [6] (kinase EPHB1, compound at 1 μM) is given as -8%. The “%-inhibition of FAK” value in [7] was -2.41%. In experiment [8], the “%-inhibition of PDHK4” value was -1.65%. The “%-inhibition, AKT3” value in [9] is -5.3%.

Turning to `N#CC[C@H](C1CCCC1)n1cc(-c2ncnc3[nH]ccc23)cn1` [ruxolitinib], in [1], the “%-inhibition of ROCK2” value amounted to 87%. Besides, the “%-inhibition of PKD3” value in experiment [2] is 6.46%. Besides, in experiment [3], the “%-inhibition of PKCγ” value was found to be 6%. Moreover, the “%-inhibition of ROS” value in experiment [4] (1 µM) was 54%. Moreover, the “%-inhibition of PKACα” value in experiment [5] (1 µM) is reported as 48%. Besides, the “%-inhibition of EPHB1” value in experiment [6] (1 µM) is on record as 31%. Also, the “%-inhibition of FAK” value in experiment [7] is listed as -1%. The “%-inhibition of PDHK4” value in experiment [8] is reported as -6%. Also, the “%-inhibition, AKT3” value in [9] turned out to be 2%.

For `CCCS(=O)(=O)Nc1ccc(F)c(C(=O)c2c[nH]c3ncc(-c4ccc(Cl)cc4)cc23)c1F` [vemurafenib], the “%-inhibition of ROCK2” value in experiment [1] was -0.177%. The “%-inhibition of PKD3” value in experiment [2] is -4.7%. Besides, the “%-inhibition of PKCγ” value in experiment [3] is listed as -4.39%. In addition, the “%-inhibition of ROS” value in experiment [4] (kinase ROS, 1 μM) is given as 2%. The “%-inhibition of PKACα” value in experiment [5] (kinase PKACα, 1 μM) is recorded as -4%. For the same compound, the “%-inhibition of EPHB1” value in experiment [6] (kinase EPHB1, compound at 1 μM) is -1.63%. Also, the “%-inhibition of FAK” value in experiment [7] is reported as -3.55%. Also, in experiment [8], the “%-inhibition of PDHK4” value is -1.4%. The “%-inhibition, AKT3” value in [9] is listed as -0.678%.

`CNC(=O)c1cc(Oc2ccc(NC(=O)Nc3ccc(Cl)c(C(F)(F)F)c3)c(F)c2)ccn1` [regorafenib]: in [1], the “%-inhibition of ROCK2” value was 2.65%. Further, in experiment [2], the “%-inhibition of PKD3” value is -18%. Further, the “%-inhibition of PKCγ” value in experiment [3] is on record as -8%. Moreover, the “%-inhibition of ROS” value in [4] (kinase ROS, 1 μM) is on record as 5%. The “%-inhibition of PKACα” value in experiment [5] (kinase PKACα, 1 μM) was -5.47%. Also, the “%-inhibition of EPHB1” value in [6] (kinase EPHB1, compound at 1 μM) was determined as 76%. In addition, in experiment [7], the “%-inhibition of FAK” value is -1.14%. In addition, the “%-inhibition of PDHK4” value in [8] was -1.61%. For the same compound, the “%-inhibition, AKT3” value in [9] was -4.23%.

For `CO[C@H]1C[C@@H]2CC[C@@H](C)[C@@](O)(O2)C(=O)C(=O)N2CCCC[C@H]2C(=O)O[C@H]([C@H](C)C[C@@H]2CC[C@@H](OC(=O)C(C)(CO)CO)[C@H](OC)C2)CC(=O)[C@H](C)/C=C(\C)[C@@H](O)[C@@H](OC)C(=O)[C@H](C)C[C@H](C)/C=C/C=C/C=C/1C` [temsirolimus], in experiment [1], the “%-inhibition of ROCK2” value is reported as -5.66%. Moreover, the “%-inhibition of PKD3” value in experiment [2] is given as -10%. For the same compound, in experiment [3], the “%-inhibition of PKCγ” value is on record as -11%. Besides, the “%-inhibition of ROS” value in experiment [4] (kinase ROS, 1 μM) is -2%. The “%-inhibition of PKACα” value in [5] (kinase PKACα, 1 μM) is given as -6%. For the same compound, the “%-inhibition of EPHB1” value in [6] (kinase EPHB1, compound at 1 μM) is -1.86%. In addition, in [7], the “%-inhibition of FAK” value is -5.48%. Moreover, the “%-inhibition of PDHK4” value in [8] was -1.83%. Also, the “%-inhibition, AKT3” value in experiment [9] was -1.72%.

Take `Cc1cn(-c2cc(NC(=O)c3ccc(C)c(Nc4nccc(-c5cccnc5)n4)c3)cc(C(F)(F)F)c2)cn1` [nilotinib]: the “%-inhibition of ROCK2” value in [1] is given as -27%. The “%-inhibition of PKD3” value in experiment [2] is listed as 2%. The “%-inhibition of PKCγ” value in experiment [3] is given as -1.31%. The “%-inhibition of ROS” value in experiment [4] (1 µM) was -0.679%. Moreover, the “%-inhibition of PKACα” value in [5] (1 µM) came out at 3.31%. Moreover, the “%-inhibition of EPHB1” value in experiment [6] (kinase EPHB1, compound at 1 μM) is 72%. The “%-inhibition of FAK” value in experiment [7] was found to be 3.25%. Further, the “%-inhibition of PDHK4” value in experiment [8] is reported as -4.31%. In [9], the “%-inhibition, AKT3” value was 1.58%.
